The numbers were not newly measured in US20020034548A1, “STABILIZED ASCORBIC COMPOSITION” (priority 1998, published 2002), which cites them from elsewhere.

Structures are written as SMILES.

For series [1] the following is noted: 5% ascorbic acid solution.
For series [2] the following is noted: pH 5.0.

As for `O=C1O[C@H]([C@@H](O)CO)C(O)=C1O` [L-ascorbic acid], the “time to completely decay into oxidized form” value in series [1] is on record as “a few days”. Moreover, in series [2], the redox potential result is listed as “+0.127 V”. Further, for the setting “2% aqueous solution at 25° C.”, the ascorbic acid deprotonated entry is given as “About 2.4%”. Besides, the pK1 (aqueous solution, room temperature) is 4.17.
